Measurements as given in patent US5004746A, “Anti-retroviral castanospermine esters” (Merrell Dow Pharmaceuticals Inc., priority 1987, dated 1991).
≈ marks a conversion by molar mass, not a printed value. Like-named read-outs stand apart in the source and are kept apart here.

Legend:
[1] = tested on: viral protein glycosylation; conditions: cited from earlier work
[2] = tested on: influenza infected cells; conditions: cited from earlier work
[3] = tested on: HIV glycoproteins; conditions: Blough et al. 1986; cited from earlier work
[4] = tested on: HIV; conditions: Blough et al. 1986; cited from earlier work
[5] = tested on: HIV-infected cells; conditions: Blough et al. 1986; cited from earlier work
[6] = tested on: Moloney murine leukemia virus (MoLV); test: in vitro XC plaque assay (inhibition of growth and replication of murine leukemia virus); assay type: cell-based; conditions: SC1, MoLV on mouse SC-1 cells, rat XC cells, compound added 2 hours prior to virus, read-out: IC50 (inhibitory concentration)
Procedure: This assay was performed according to the method of Rowe et al. (Virology, 1970, 42, 1136-39) as previously described by L. Hsu, et al. (J. Viroloqical Methods, 1980, 1, 167-77) and T. L. Bowlin and M. R. Proffitt (J. Interferon Res., 1983, 3(1), 19-31). Mouse SC-1 cells (fibroblast) (10^5) were seeded into each well of 6-well cluster plates (Costar #3506) in 4 ml Minimum Essential Medium (MEM) with 10% Fetal Calf Serum (FCS). Following an 18 hour incubation period (37° C.), Moloney murine leukemia virus (MoLV) was applied at a predetermined titer to give optimal (i.e. countable) numbers of virus plaques. Compounds were added 2 hours prior to addition of the virus. Three days later the culture medium was removed, the SC-1 cell monolayers were exposed to UV irradiation (1800 ergs), and rat XC cells […] were seeded into each well in 4 ml MEM. Following an additional 3 day incubation (37° C.), these cells were fixed with ethyl alcohol (95%) and stained with 0.3% crystal violet. Plaques were then counted under low magnification.

| SMILES | IC50 [6] | further results |
| --- | --- | --- |
| OC[C@H]1OC(O)[C@@H](F)[C@@H](O)[C@@H]1O (stereo partly drawn) [2-deoxy-2-fluoro-D-mannose] | – | inhibition of viral protein glycosylation [1]: preventing the glycosylation of viral membrane protein; antiviral activity against influenza infected cells [2]: exhibit antiviral activity against influenza infected cells |
| OC[C@H]1OC(O)[C@H](F)[C@@H](O)[C@@H]1O (some centres unmarked) [2-deoxy-2-fluoroglucose] | – | inhibition of viral protein glycosylation [1]: inhibit viral protein glycosylation |
| O=CC[C@@H](O)[C@H](O)[C@H](O)CO [2-deoxy-D-glucose] | – | inhibition of expression of HIV glycoproteins [3]: inhibit expression of HIV glycoproteins; block of formation of syncytia [4]: block the formation of syncytia; viral multiplication of HIV-infected cells [5]: stopped; inhibition of viral protein glycosylation ([1]; McDowell et al. 1985): inhibit viral protein glycosylation |
| O=C(O[C@H]1CN2CC[C@H](O)[C@@H]2[C@@H](O)[C@@H]1O)c1ccco1 [R = 2-Furanoyl, R1 = H, R2 = H, 6-(2-Furancarboxylate)] | 1 µg/mL (≈ 3.53 µM) | – |
| CC(=O)O[C@H]1CN2CC[C@H](O)[C@@H]2[C@@H](O)[C@@H]1O [R = Ac, R1 = H, R2 = H, [1S-(1α,6β,7α,8β,8aβ)]-octahydro-1,6,7,8-indolizinetetrol 6-acetate] | 10 µg/mL (≈ 43.2 µM) | – |
| CCCC(=O)O[C@H]1[C@H](O)[C@@H](OC(=O)CCC)CN2CC[C@H](O)[C@H]12 [R = Butanoyl, R1 = H, R2 = Butanoyl, [1S-(1α,6β,7α,8β,8aβ)]-octahydro-1,6,7,8-indolizinetetrol 6,8-dibutanoate] | 0.5 µg/mL (≈ 1.52 µM) | – |
| CCCC(=O)O[C@H]1CN2CC[C@H](O)[C@@H]2[C@@H](O)[C@@H]1O [R = Butanoyl, R1 = H, R2 = H, [1S(1α,6β,7α,8β,8aβ)]-octahydro-1,6,7,8indolizinetrol 6-butanoate] | 0.1 µg/mL (≈ 0.386 µM) | – |
| O=C(O[C@H]1[C@H](O)[C@H]2[C@@H](O)CCN2C[C@@H]1OC(=O)c1ccccc1)c1ccccc1 [R = Bz, R1 = Bz, R2 = H, [1S-(1α,6β,7α,8β,8aβ)]-octahydro-1,6,7,8-indolizinetetrol 6,7-dibenzoate] | 10 µg/mL (≈ 25.2 µM) | – |
| O=C(O[C@H]1CN2CC[C@H](O)[C@@H]2[C@@H](O)[C@@H]1O)c1ccccc1 [R = Bz, R1 = H, R2 = H, [1S-(1α,6β,7α,8β,8aβ)]octahydro-1,6,7,8-indolizinetetrol 6-benzoate] | 0.1 µg/mL (≈ 0.341 µM) | – |
| O=C(O[C@H]1[C@H](O)[C@H]2[C@@H](O)CCN2C[C@@H]1O)c1ccc(Cl)cc1Cl [R = H, R1 = 2,4-Cl2 -Bz, R2 = H, [1S-(1α,6β,7α,8β,8aβ)]-octahydro-1,6,7,8-indolizinetetrol 7-(2,4-dichlorobenzoate)] | 1 µg/mL (≈ 2.76 µM) | – |
| O=C(O[C@H]1[C@H](O)[C@H]2[C@@H](O)CCN2C[C@@H]1O)c1ccccc1 [R = H, R1 = Bz, R2 = H, [1S-(1α,6β,7α,8β,8aβ)]-octahydro 1,6,7,8-indolizinetetrol 7-benzoate] | 1 µg/mL (≈ 3.41 µM) | – |
| Cc1ccc(C(=O)O[C@H]2[C@H](O)[C@H]3[C@@H](O)CCN3C[C@@H]2O)cc1 [R = H, R1 = p-CH3 Bz, R2 = H, [1S-(1α,6β,7α,8β,8aβ)]-octahydro-1,6,7,8-indolizinetetrol 7-(4-methylbenzoate)] | 1 µg/mL (≈ 3.25 µM) | – |
| Cc1ccc(C(=O)O[C@H]2CN3CC[C@H](O)[C@@H]3[C@@H](O)[C@@H]2O)cc1 [R = p-CH3 -Bz, R1 = H, R2 = H, [1S-(1α,6β,7α,8β,8aβ)]-octahydro-1,6,7,8-indolizinetetrol 6-(4-methylbenzoate)] | 1 µg/mL (≈ 3.25 µM) | – |
| COc1ccc(C(=O)O[C@H]2CN3CC[C@H](O)[C@@H]3[C@@H](O)[C@@H]2O)cc1 [R = p-CH3 O-Bz, R1 = H, R2 = H, [1S-(1α,6β,7α,8β,8aβ)]-octahydro-1,6,7,8-indolizinetetrol 6-(4-methoxybenzoate)] | 10 µg/mL (≈ 30.9 µM) | – |
| O=C(O[C@H]1CN2CC[C@H](O)[C@@H]2[C@@H](O)[C@@H]1O)c1ccc(F)cc1 [R = p-F-Bz, R1 = H, R2 = H, [1S-(1α,6β,7α,8β,8aβ)]-octahydro-1,6,7,8-indolizinetetrol 6-(4-fluorobenzoate)] | 10 µg/mL (≈ 32.1 µM) | – |
| O=C(O[C@H]1[C@H](O)[C@H]2[C@@H](O)CCN2C[C@@H]1OC(=O)c1ccc(F)cc1)c1ccc(F)cc1 [R = p-F-Bz, R1 = p-F-Bz, R2 = H, [1S-(1α,6β,7α,8β,8aβ)]-octahydro-1,6,7,8-indolizinetetrol 6,7-bis(4-fluorobenzoate)] | 10 µg/mL (≈ 23.1 µM) | – |
| CCC(O)[C@H](N)C(=O)O (stereo partly drawn) [β-hydroxy-norvaline] | – | inhibition of expression of HIV glycoproteins [3]: inhibit expression of HIV glycoproteins; block of formation of syncytia [4]: block the formation of syncytia; viral multiplication of HIV-infected cells [5]: stopped |
